The target of this experiment is T1, mGluR5 receptor (Sus scrofa, UniProt I3LUI7).
T1 construct: 450 μg of protein from brain homogenate with 5 nM ^3[H]-MPEP; from tissue; host or cells: pig brain halves without medulla, cerebellum and pons
The experiment can be described thus: [3H]-MPEP mGluR5 receptor binding assay (pig brain homogenate). The conditions noted are these: 10 μM compound, 5 nM [3H]-MPEP, read-out: % Inhibition of mGluR5 Receptor (pig) [^3H]-MPEP Bond at 10 μM. As for the experimental part:
I. Method for Determining the Inhibition of the [^3H]-MPEP Bond in the mGluR5 Receptor Binding Assay
Pig brain homogenate is produced by homogenizing (Polytron PT 3000, Kinematica AG, 10 000 rpm for 90 seconds) pig brain halves without medulla, cerebellum and pons in pH 8.0 buffer (20 mM Hepes, Sigma, order no. H3375+1 complete tablet, 100 ml, Roche Diagnostics, order no. 1836145) in the ratio of 1:20 (brain weight/volume) and differential centrifuging at 900×g and 40 000×g. In incubation batches of 250 μl in 96-well microtitre plates 450 μg of protein from brain homogenate with 5 nM ^3[H]-MPEP (Tocris, order no. R1212) (MPEP=[…]) and the compounds to be examined (10 μM in test) in buffer (as above) are respectively incubated at room temperature for 60 minutes.
The batches are then filtered using a Brandel cell harvester (Brandel, Robotic 9600) on unifilter plates with fibreglass filter mats (Perkin Elmer, order no. 6005177) and then washed with buffer (as above) 3-times each with 250 μl per sample. The filter plates are then dried for 60 mins. at 55° C. Then, 30 μL of Ultima Gold™ scintillator (Packard BioScience, order no. 6013159) are added per well and after 3 hours the samples are measured on the β-counter (MicroBeta, Perkin Elmer). The non-specific binding is determined by adding 10 μM of MPEP (Tocris, order no. 1212).

The structures appear in SMILES notation.

T1 sequence (I3LUI7 19-1212): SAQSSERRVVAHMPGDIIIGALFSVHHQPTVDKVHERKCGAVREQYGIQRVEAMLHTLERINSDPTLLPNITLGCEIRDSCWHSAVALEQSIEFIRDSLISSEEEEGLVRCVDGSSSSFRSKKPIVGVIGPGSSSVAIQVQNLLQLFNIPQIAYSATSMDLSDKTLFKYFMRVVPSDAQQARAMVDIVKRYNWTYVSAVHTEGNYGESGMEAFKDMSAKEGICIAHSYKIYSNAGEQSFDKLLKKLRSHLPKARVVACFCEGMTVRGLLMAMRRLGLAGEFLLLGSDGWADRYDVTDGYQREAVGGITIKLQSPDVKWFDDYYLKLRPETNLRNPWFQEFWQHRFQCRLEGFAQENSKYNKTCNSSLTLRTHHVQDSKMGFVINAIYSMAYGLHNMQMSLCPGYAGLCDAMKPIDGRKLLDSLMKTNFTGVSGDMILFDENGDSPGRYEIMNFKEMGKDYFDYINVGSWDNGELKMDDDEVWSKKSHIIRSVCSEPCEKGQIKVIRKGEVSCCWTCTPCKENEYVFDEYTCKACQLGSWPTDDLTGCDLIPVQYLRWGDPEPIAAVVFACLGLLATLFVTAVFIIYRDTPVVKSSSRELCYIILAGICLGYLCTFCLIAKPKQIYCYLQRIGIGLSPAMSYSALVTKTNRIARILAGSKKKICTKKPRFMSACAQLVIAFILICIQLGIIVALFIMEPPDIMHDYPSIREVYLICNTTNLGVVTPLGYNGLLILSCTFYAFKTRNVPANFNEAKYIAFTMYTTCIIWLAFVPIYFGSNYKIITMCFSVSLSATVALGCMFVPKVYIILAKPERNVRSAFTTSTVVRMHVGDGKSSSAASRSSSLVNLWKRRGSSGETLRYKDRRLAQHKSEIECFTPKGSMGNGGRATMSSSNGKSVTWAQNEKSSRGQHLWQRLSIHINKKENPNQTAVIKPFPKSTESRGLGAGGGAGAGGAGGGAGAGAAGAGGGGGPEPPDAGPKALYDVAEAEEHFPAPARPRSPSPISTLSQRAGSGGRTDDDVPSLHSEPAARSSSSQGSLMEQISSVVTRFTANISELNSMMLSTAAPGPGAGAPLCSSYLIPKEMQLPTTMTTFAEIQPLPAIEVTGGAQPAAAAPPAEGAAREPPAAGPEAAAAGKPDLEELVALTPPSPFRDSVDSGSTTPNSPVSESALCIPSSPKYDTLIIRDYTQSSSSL

What is called inhibition is the percentage by which the read-out fell short of the control. As for `CCCN(Cc1cccc(-c2ccc3ncnc(Nc4ccccc4)c3c2)c1)C(=O)c1ccco1` [Example 120, furan-2-carboxylic acid [3-(4-phenylamino-quinazolin-6-yl)-benzyl]-propyl-amide], the inhibition at 10 µM came out at 48%.
With `O=C(c1ccccc1Br)N(Cc1cccc(-c2ccc3ncnc(N4CCCC4)c3c2)c1)C1CC1` [Example 122, 2-bromo-N-cyclopropyl-N-[3-(4-pyrrolidin-1-yl-quinazolin-6-yl)-benzyl]-benzamide], the inhibition at 10 µM turned out to be 37%.
Regarding `O=C(c1cc2ccccc2cn1)N(Cc1cccc(-c2ccc3ncnc(N4CCCC4)c3c2)c1)C1CC1` [Example 125, isoquinoline-3-carboxylic acid cyclopropyl-[3-(4-pyrrolidin-1-yl-quinazolin-6-yl)-benzyl]-amide], the inhibition at 10 µM is 30%.
As to `N#CCC(=O)N(Cc1cccc(-c2ccc3ncnc(N4CCCC4)c3c2)c1)C1CC1` [Example 133, 2-cyano-N-cyclopropyl-N-[3-(4-pyrrolidin-1-yl-quinazolin-6-yl)-benzyl]-acetamide], the inhibition at 10 µM worked out at 50%.
As for `Cc1ccc(C(=O)N(Cc2cccc(-c3ccc4ncnc(N5CCCC5)c4c3)c2)C2CC2)cc1` [Example 134, N-cyclopropyl-4-methyl-N-[3-(4-pyrrolidin-1-yl-quinazolin-6-yl)-benzyl]-benzamide], the inhibition at 10 µM was found to be 58%.
Regarding `O=C(c1ccccc1C(F)(F)F)N(Cc1cccc(-c2ccc3ncnc(N4CCCC4)c3c2)c1)C1CC1` [Example 135, N-cyclopropyl-N-[3-(4-pyrrolidin-1-yl-quinazolin-6-yl)-benzyl]-2-trifluoromethyl-benzamide], the inhibition at 10 µM came to 32%.
With `COc1ccc(C(=O)N(Cc2cccc(-c3ccc4ncnc(N5CCCC5)c4c3)c2)C2CC2)cc1` [Example 142, N-cyclopropyl-4-methoxy-N-[3-(4-pyrrolidin-1-yl-quinazolin-6-yl)-benzyl]-benzamide], the inhibition at 10 µM stood at 51%.
As to `O=C(c1ccccc1Cl)N(Cc1cccc(-c2ccc3ncnc(N4CCCC4)c3c2)c1)C1CC1` [Example 143, 2-chloro-N-cyclopropyl-N-[3-(4-pyrrolidin-1-yl-quinazolin-6-yl)-benzyl]-benzamide], the inhibition at 10 µM was determined as 71%.
Regarding `O=C(COc1ccccc1)N(Cc1cccc(-c2ccc3ncnc(N4CCCC4)c3c2)c1)C1CC1` [Example 145, N-cyclopropyl-2-phenoxy-N-[3-(4-pyrrolidin-1-yl-quinazolin-6-yl)-benzyl]-acetamide], the inhibition at 10 µM was 53%.
Regarding `CCCC(=O)N(Cc1ccccc1)Cc1cccc(-c2ccc3ncnc(NC(C)C)c3c2)c1` [Example 148, N-benzyl-N-[3-(4-isopropylamino-quinazolin-6-yl)-benzyl]-butyramide], the inhibition at 10 µM is 40%.
As to `CC(C)Nc1ncnc2ccc(-c3cccc(CN(Cc4ccccc4)C(=O)c4ccco4)c3)cc12` [Example 149, furan-2-carboxylic acid benzyl-[3-(4-isopropylamino-quinazolin-6-yl)-benzyl]-amide], the inhibition at 10 µM is 32%.
For the compound `CC(C)Nc1ncnc2ccc(-c3cccc(CN(Cc4ccccc4)C(=O)c4ccccc4Cl)c3)cc12` [Example 150, N-benzyl-2-chloro-N-[3-(4-isopropylamino-quinazolin-6-yl)-benzyl]-benzamide], the inhibition at 10 µM was 40%.
Regarding `CC(C)Nc1ncnc2ccc(-c3cccc(CN(Cc4ccccc4)C(=O)c4ccncc4)c3)cc12` [Example 151, N-benzyl-N-[3-(4-isopropylamino-quinazolin-6-yl)-benzyl]-isonicotinamide], the inhibition at 10 µM stood at 66%.
`O=C(c1ccc(C(F)(F)F)cc1F)N(Cc1ccccc1)Cc1cccc(-c2ccc3ncnc(NC4CC4)c3c2)c1` [Example 152, N-benzyl-N-[3-(4-cyclopropylamino-quinazolin-6-yl)-benzyl]-2-fluoro-4-trifluoromethyl-benzamide]: the inhibition at 10 µM is 45%.
The result for `CC(C)Nc1ncnc2ccc(-c3cccc(CN(Cc4ccccc4)C(=O)c4cccnc4)c3)cc12` [Example 153, N-benzyl-N-[3-(4-isopropylamino-quinazolin-6-yl)-benzyl]-nicotinamide] reads 63%; that for `CC(C)Nc1ncnc2ccc(-c3cccc(CN(Cc4ccccc4)C(=O)c4cccs4)c3)cc12` [Example 154, thiophene-2-carboxylic acid benzyl-[3-(4-isopropylamino-quinazolin-6-yl)-benzyl]-amide], 37%.
As to `COc1ccc(C(=O)N(Cc2ccccc2)Cc2cccc(-c3ccc4ncnc(NC(C)C)c4c3)c2)cc1` [Example 155, N-benzyl-N-[3-(4-isopropylamino-quinazolin-6-yl)-benzyl]-4-methoxy-benzamide], the inhibition at 10 µM is 67%.
Regarding `O=C(c1ccccc1O)N(Cc1cccc(-c2ccc3ncnc(NC4CC4)c3c2)c1)C1CC1` [Example 156, N-cyclopropyl-N-[3-(4-cyclopropylamino-quinazolin-6-yl)-benzyl]-2-hydroxy-benzamide], the inhibition at 10 µM amounted to 90%.
As to `O=C(c1ccccc1Br)N(Cc1cccc(-c2ccc3ncnc(NC4CC4)c3c2)c1)C1CC1` [Example 157, 2-bromo-N-cyclopropyl-N-[3-(4-cyclopropylamino-quinazolin-6-yl)-benzyl]-benzamide], the inhibition at 10 µM turned out to be 90%.
Turning to `COc1ccc(C(=O)N(Cc2cccc(-c3ccc4ncnc(NC5CC5)c4c3)c2)C2CC2)cc1OC` [Example 158, N-cyclopropyl-N-[3-(4-cyclopropylamino-quinazolin-6-yl)-benzyl]-3,4-dimethoxy-benzamide], the inhibition at 10 µM came out at 81%.
As to `O=C(c1cc2ccccc2cn1)N(Cc1cccc(-c2ccc3ncnc(NC4CC4)c3c2)c1)C1CC1` [Example 159, isoquinoline-3-carboxylic acid cyclopropyl-[3-(4-cyclopropylamino-quinazolin-6-yl)-benzyl]-amide], the inhibition at 10 µM is 85%.
On to `O=C(c1ccc(Cl)cc1)N(Cc1cccc(-c2ccc3ncnc(NC4CC4)c3c2)c1)C1CC1` [Example 160, 4-chloro-N-cyclopropyl-N-[3-(4-cyclopropylamino-quinazolin-6-yl)-benzyl]-benzamide], for which the inhibition at 10 µM worked out at 70%.
`N#Cc1ccc(C(=O)N(Cc2cccc(-c3ccc4ncnc(NC5CC5)c4c3)c2)C2CC2)cc1` [Example 161, 4-cyano-N-cyclopropyl-N-[3-(4-cyclopropylamino-quinazolin-6-yl)-benzyl]-benzamide]: the inhibition at 10 µM is 96%.
For `O=C(c1cnccn1)N(Cc1cccc(-c2ccc3ncnc(NC4CC4)c3c2)c1)C1CC1` [Example 162, pyrazine-2-carboxylic acid cyclopropyl-[3-(4-cyclopropylamino-quinazolin-6-yl)-benzyl]-amide], the inhibition at 10 µM is 84%.
The value for `O=C(c1cccc(Br)n1)N(Cc1cccc(-c2ccc3ncnc(NC4CC4)c3c2)c1)C1CC1` [Example 163, 6-bromo-pyridine-2-carboxylic acid cyclopropyl-[3-(4-cyclopropylamino-quinazolin-6-yl)-benzyl]-amide] was 89%; that for `O=C(COc1ccccc1)N(Cc1cccc(-c2ccc3ncnc(NC4CC4)c3c2)c1)C1CC1` [Example 164, N-cyclopropyl-N-[3-(4-cyclopropylamino-quinazolin-6-yl)-benzyl]-2-phenoxy-acetamide] was 86%.

For the origin of these results see patent publication US20090069320A1, “Substituted 4-Amino-Quinazoline Compounds with Metabotropic Glutamate Receptor Regulating Activity and Uses Thereof” (Gruenenthal GmbH, priority 2006, published 2009).
